From the supplement of paper PMC13380429

Experiments:
Details in all cases: 72 h
Calu-3 [1] = test: cell viability relative to DMSO; higher = less toxic
Vero E6 [2] = test: as above
U2OS [3] = test: as above
Caco-2 [4] = test: as above
HepG2 [5] = test: as above
Calu-3 [6] = test: drug sensitivity score (DSS) for viability; higher = more toxic; extreme values may be limits of the assay
Vero E6 [7] = test: as above
U2OS [8] = test: as above
Caco-2 [9] = test: as above
HepG2 [10] = test: as above
Caco-2 [11] = test: relative viability EC50 (midpoint between 100% and the lowest measured viability); higher = less toxic
Calu-3 [12] = test: as above
U2OS [13] = test: as above
HepG2 [14] = test: as above
Vero E6 [15] = test: as above

| SMILES | cell viability (Calu-3 [1]; 1 nM) | cell viability (Calu-3 [1]; 10 nM) | cell viability (Calu-3 [1]; 100 nM) | cell viability (Calu-3 [1]; 1000 nM) | cell viability (Calu-3 [1]; 10000 nM) | cell viability (Vero E6 [2]; 1 nM) | cell viability (Vero E6 [2]; 10 nM) | cell viability (Vero E6 [2]; 100 nM) | cell viability (Vero E6 [2]; 1000 nM) | cell viability (Vero E6 [2]; 10000 nM) | cell viability (U2OS [3]; 1 nM) | cell viability (U2OS [3]; 10 nM) | cell viability (U2OS [3]; 100 nM) | cell viability (U2OS [3]; 1000 nM) | cell viability (U2OS [3]; 10000 nM) | cell viability (Caco-2 [4]; 1 nM) | cell viability (Caco-2 [4]; 10 nM) | cell viability (Caco-2 [4]; 100 nM) | cell viability (Caco-2 [4]; 1000 nM) | cell viability (Caco-2 [4]; 10000 nM) | cell viability (HepG2 [5]; 1 nM) | cell viability (HepG2 [5]; 10 nM) | cell viability (HepG2 [5]; 100 nM) | cell viability (HepG2 [5]; 1000 nM) | cell viability (HepG2 [5]; 10000 nM) | drug sensitivity score (Calu-3 [6]) | drug sensitivity score (Vero E6 [7]) | drug sensitivity score (U2OS [8]) | drug sensitivity score (Caco-2 [9]) | drug sensitivity score (HepG2 [10]) | relative viability EC50 (Caco-2 [11]) | relative viability EC50 (Calu-3 [12]) | relative viability EC50 (U2OS [13]) | relative viability EC50 (HepG2 [14]) | relative viability EC50 (Vero E6 [15]) |
| --- | --- | --- | --- | --- | --- | --- | --- | --- | --- | --- | --- | --- | --- | --- | --- | --- | --- | --- | --- | --- | --- | --- | --- | --- | --- | --- | --- | --- | --- | --- | --- | --- | --- | --- | --- |
| Nc1cc(F)ccc1NC(=O)/C=C/c1cnn(C/C=C/c2ccccc2)c1 [RGFP966] | 99.3% | 106% | 89.2% | 87.6% | 51.4% | 104% | 106% | 105% | 95.9% | 66.2% | 92.9% | 104% | 92.2% | 89.5% | 68.6% | 100% | 98.9% | 92.6% | 91.2% | 76.7% | 93.2% | 105% | 96.4% | 87.2% | 52.4% | 4.1 | 2.2 | 2.2 | 1.4 | 4.4 | > 10 µM |  |  |  |  |
| CN[C@@H](C)C(=O)N[C@H]1CCCC[C@H]2CC[C@@H](C(=O)N[C@@H](c3ccccc3)c3cn(CCCCc4ccc(CCCCn5cc([C@@H](NC(=O)[C@@H]6CC[C@@H]7CCCC[C@H](NC(=O)[C@H](C)NC)C(=O)N76)c6ccccc6)nn5)cc4)nn3)N2C1=O [SM-164] | 103% | 90% | 99% | 89.2% | 81.3% |  |  |  |  |  | 99.5% | 108% | 102% | 98.8% | 99.7% | 105% | 109% | 85.5% | 84% | 98.4% | 106% | 104% | 98.6% | 96.9% | 90.1% | 0.9 |  | 0 | 2.7 | 0 | > 10 µM | > 10 µM | > 10 µM | > 10 µM |  |
| COc1cc2c(NC3CCN(CC4CCCCC4)CC3)nc(N3CCCN(C(C)C)CC3)nc2cc1OCCCN1CCCCC1 [UNC0631] | 103% | 97.2% | 104% | 103% | 18.9% | 93.4% | 97.1% | 88.6% | 93% | 50.9% | 102% | 102% | 102% | 98.7% | 74.2% | 97.7% | 104% | 103% | 84.4% | 83.2% | 104% | 111% | 100% | 96.3% | 0.2% | 4.3 | 3.8 | 1.2 | 1.6 | 6.1 | > 10 µM | 3.36 µM |  | 2.89 µM |  |
| Cc1ccc(-c2nc3ccc(C)cn3c2CC(=O)N(C)C)cc1 [ZOLPIDEM] | 102% | 109% | 97% | 95.9% | 105% |  |  |  |  |  | 101% | 104% | 101% | 100% | 96.2% | 95.5% | 97% | 117% | 95.1% | 98.1% | 110% | 97.7% | 101% | 97.1% | 99.6% | 0 |  | 0 | 0 | 0 | > 10 µM | > 10 µM | > 10 µM | > 10 µM |  |
| Cc1cccc(C)c1NC(=O)c1ccc(N)cc1 [ameltolide] | 95.7% | 92.7% | 83% | 92.5% | 97.1% |  |  |  |  |  | 97% | 103% | 94.6% | 99.2% | 94.2% | 89.3% | 94.4% | 102% | 110% | 85.4% | 99.6% | 89.3% | 86.2% | 76% | 98.7% | 0 |  | 0 | 0.1 | 0 | > 10 µM | > 10 µM | > 10 µM | > 10 µM |  |
| CCC(C)(CN(C)C)OC(=O)c1ccccc1 (centres undefined) [amyleine] | 106% | 95.6% | 101% | 102% | 114% | 108% | 99.8% | 99% | 104% | 100% |  |  |  |  |  | 115% | 88.1% | 97.3% | 101% | 92.7% | 106% | 103% | 109% | 98.1% | 88.7% | 0 | 0 |  | 0 | 0.1 | > 10 µM | > 10 µM |  | > 10 µM | > 10 µM |
| COC(=O)[C@H](Cc1ccccc1)NC(=O)[C@@H](N)CC(=O)O [aspartame] | 91.2% | 100% | 92.8% | 89.4% | 96.5% |  |  |  |  |  | 99.8% | 99.7% | 98.6% | 103% | 101% | 97.8% | 99.1% | 101% | 99.6% | 94% | 98.3% | 91.6% | 98.2% | 94.3% | 102% | 0 |  | 0 | 0 | 0 | > 10 µM | > 10 µM | > 10 µM | > 10 µM |  |
| Cn1c(=O)c2c(ncn2C)n(C)c1=O [caffeine] |  |  |  |  |  |  |  |  |  |  |  |  |  |  |  |  |  |  |  |  |  |  |  |  |  | 0 | 0 | 0 |  | 0 |  |  |  |  |  |
| O=C(O)c1cc(=O)c2ccccc2o1 [chromocarb] | 81.8% | 93.2% | 86.8% | 103% | 93.7% |  |  |  |  |  |  |  |  |  |  | 99.8% | 109% | 104% | 110% | 108% | 114% | 106% | 114% | 98.5% | 110% | 0 |  |  | 0 | 0 | > 10 µM | > 10 µM |  | > 10 µM |  |
